Measurements from patent US20110053969A1, “NOVEL DIAZASIPIROAKANES AND THEIR USE FOR TREATMENT OF CCR8 MEDIATED DISEASES” (ASTRAZENECA AB, priority 2005, published 2011).
Where a name gives a salt, the structure may show the parent alone.

Assays:
[1] = biological target: T1, human recombinant chemokine CCR8 receptor (Homo sapiens, UniProt P51685); assay: CCL1 SPA binding assay; conditions: inhibition of 125I CCL1 binding to membranes from CHO-K1 cells transfected with human CCR8
T1 construct: purchased Euroscreen ES-136-M; host or cells: CHO-K1 cells (transfected), membrane preparation
Description: Membranes from CHO-K1 cells transfected with human recombinant chemokine CCR8 receptor (ES-136-M) were purchased from Euroscreen. Membrane preparations are stored at −70 C in 7.5 mM Tris-Cl pH 7.5, 12.5 mM MgCl2, 0.3 mM EDTA, 1 mM EGTA, 250 mM sucrose until used.
The CCR8 membranes (50.6 mg/ml) were preincubated with Wheat Germ Agglutinin SPA beads (4.05 mg/ml) in assay buffer (50 mM HEPES, 1 mM CaCl2x2H2O, 5 mM MgCl2x6H2O, 75 mM NaCl, 0.1% BSA) at pH=7.4 for 2 hours on ice. A 10-point dose-response curve (final concentrations 50 μM, 16.7 μM, 5.6 μM, 1.9 μM, 0.62 μM, 0.21 μM, 0.069 μM, 0.023 μM) was prepared by diluting compounds by serial dilution 1:3 in DMSO. In the screening plate (Polystyrene NBS plates, Costar Corning 3604) 1 μl from the DMSO solutions of compounds was transferred into each well. 1 μl of DMSO was added to the blank control wells and 1 μl unlabeled CCL1 (300 nM) was added to background control wells. 50 μl of the SPA bead-membrane mixture was added into each well. Finally, 50 μl. ([…]) ^125I CCL1 (2000 Ci/mM) was added to each well. Plates were then incubated at RT with shaking (700 rpm) for 90 minutes followed by 30 minutes at RT without shaking. The plate was read in a Wallac MicroBeta counter for 2 minutes/well.

[2] = Human microsomal stability assay; assay type: in vitro ADME; conditions: human microsomes (Xenotech), 1 mg microsomal protein/mL, 2.5 μM compound, 2 mM NADPH, pH 7.4, 37° C., read-out: Human Microsomal Stability (intrinsic Clearance, CLint)
Description: Human Microsomal Stability Assay
The assay is run in a 96-deepwell format at 1 mg microsomal protein (Xenotech)/mL in potassium phosphate buffer (pH 7.4) with a compound concentration of 2.5 μM and a NADPH concentration of 2 mM. Samples at four time-points (0, 5, 15 and 30 minutes) are withdrawn and the enzymatic reaction is terminated by protein precipitation with 1% acetic acid in acetonitrile. The incubations are performed on a thermostated plate (37° C.) placed on a Tecan worktable, and all liquid handling was performed robotically. After centrifugation of the samples, the supernatants are pooled in sets of four before they are analysed by liquid chromatography with tandem mass spectrometry detection (LC/MS/MS) using multiple reaction monitoring (MRM). Data are presented as intrinsic Clearance (CLint), μl/min/mg protein, calculated from the initial linear part of the compound disappearance curve.

T1 sequence (P51685 whole entry): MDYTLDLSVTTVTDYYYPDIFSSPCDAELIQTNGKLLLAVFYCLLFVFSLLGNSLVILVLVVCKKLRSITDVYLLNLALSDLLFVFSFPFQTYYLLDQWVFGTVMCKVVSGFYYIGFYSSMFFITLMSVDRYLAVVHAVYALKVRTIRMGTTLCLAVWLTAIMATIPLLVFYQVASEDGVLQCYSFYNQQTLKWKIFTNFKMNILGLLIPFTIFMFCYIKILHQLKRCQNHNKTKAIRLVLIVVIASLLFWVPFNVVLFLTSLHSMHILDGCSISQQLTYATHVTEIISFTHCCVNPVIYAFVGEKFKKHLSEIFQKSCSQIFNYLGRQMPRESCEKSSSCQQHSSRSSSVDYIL

Question: For CC(C)COc1ccccc1CN1CCC2(CC1)CCN(C(=O)c1ccc[nH]c1=O)CC2 [A, 3-{[9-(2-isobutoxybenzyl)-3,9-diazaspiro[5.5]undec-3-yl]carbonyl}pyridin-2(1H)-one, reference compound], which IC50 [1] is on record?
Answer: The IC50 was 1950 nM.

Question: For CC(C)COc1ccccc1CN1CCC2(CC1)CCN(C(=O)c1ccc(=O)[nH]c1)CC2 [B, 5-{[9-(2-isobutoxybenzyl)-3,9-diazaspiro[5.5]undec-3-yl]carbonyl}pyridin-2(1H)-one, reference compound], which IC50 [1] is on record?
Answer: The IC50 was 1900 nM.

Question: Which IC50 [1] does the source give for COc1ccccc1Oc1ccccc1CN1CCC2(CC1)CCN(C(=O)c1ccc[nH]c1=O)CC2 [Example 2, 3-({9-[2-(2-methoxyphenoxy)benzyl]-3,9-diazaspiro[5.5]undec-3-yl}carbonyl)pyridin-2(1H)-one] here?
Answer: The IC50 was 62 nM.

Question: And the microsomal CLint at 2.5 μM [2]?
Answer: The microsomal CLint at 2.5 μM was less than 10 µL/min/mg.

Question: For COc1ccccc1Oc1ccccc1CN1CCC2(CC1)CCN(C(=O)c1ccc(=O)[nH]c1C(F)(F)F)CC2 [Example 3, 5-({9-[2-(2-methoxyphenoxy)benzyl]-3,9-diazaspiro[5.5]undec-3-yl}carbonyl)-6-(trifluoromethyl)pyridin-2(1H)-one trifluoroacetate], which IC50 [1] is on record?
Answer: The IC50 was 83 nM.

Question: And the microsomal CLint at 2.5 μM [2]?
Answer: Its microsomal CLint at 2.5 μM is less than 10 µL/min/mg.

Question: Which results are given for COc1ccccc1Oc1cccc(CN2CCC3(CC2)CCN(C(=O)c2ccc[nH]c2=O)CC3)c1 [Example 4, 3-({9-[3-(2-methoxyphenoxy)benzyl]-3,9-diazaspiro[5.5]undec-3-yl}carbonyl)pyridin-2(1H)-one]?
Answer: IC50 [1]: 15 nM; microsomal CLint at 2.5 μM [2]: 21.7 µL/min/mg
